{"source": "paper PMC7327142", "about": "(Biomolecules & Therapeutics, 2020)", "key": {"HEK293 cells": {"test_system": "HEK293 cells", "conditions": "for Cytotoxicity against HEK cells: 25 h"}}, "data": [{"compound": "O=C(CCCN1C(=O)c2ccccc2C1=O)Nc1ccc2ccccc2c1", "note": "[Compound 4, 4-(1,3-dioxo-1,3-dihydro-2H-isoindol-2-yl)-N-2-naphthylbutanamide]", "values": [{"measurement": "effect on growth and proliferation of HEK293 cells", "setting": "HEK293 cells", "result": "decreased the cell numbers"}, {"measurement": "Cytotoxicity against HEK cells", "setting": "HEK293 cells; 20 µM", "result": 0.603}]}, {"compound": "O=C(c1cc(-c2ccc(F)cc2)n[nH]1)N1CCC(Cc2ccc(CO)cc2)C1", "note": "(stereo not shown) [Compound 22, {4-[(1-{[3-(4-fluorophenyl)-1H-pyrazol-5-yl]carbonyl}pyrrolidin-3-yl)methyl]phenyl}methanol]", "values": [{"measurement": "Cytotoxicity against HEK cells", "setting": "HEK293 cells; 20 µM", "result": 0.596}]}, {"compound": "COCc1ccc(C(=O)NCc2nc(-c3cccc(NC(=O)C4CCCN(C)C4)c3)oc2C)s1", "note": "(stereo not shown) [Compound 26, N-(3-{4-[({[5-(methoxymethyl)-2-thienyl]carbonyl}amino)methyl]-5-methyl-1,3-oxazol-2-yl}phenyl)-1-methyl-3-piperidinecarboxamide]", "values": [{"measurement": "Cytotoxicity against HEK cells", "setting": "HEK293 cells; 20 µM", "result": 0.587}]}, {"compound": "O=C(CCCc1ccccc1)Nc1cccc(N2CCC(NCc3cccnc3)CC2)c1", "note": "[Compound 33, 4-phenyl-N-(3-{4-[(3-pyridinylmethyl)amino]-1-piperidinyl}phenyl)butanamide]", "values": [{"measurement": "Cytotoxicity against HEK cells", "setting": "HEK293 cells; 20 µM", "result": 0.588}]}, {"compound": "CC(C)(O)C#Cc1ccc(C(=O)N2CCCC(CCC(=O)NCc3ccccc3F)C2)cc1", "note": "(stereo not shown) [Compound 35, N-(2-fluorobenzyl)-3-{1-[4-(3-hydroxy-3-methyl-1-butyn-1-yl)benzoyl]-3-piperidinyl}propanamide]", "values": [{"measurement": "Cytotoxicity against HEK cells", "setting": "HEK293 cells; 20 µM", "result": 0.580}]}, {"compound": "Cn1cc(C(=O)N2CCN(CCOc3ccc(CN4CCC(Cc5ccccc5)CC4)cc3)CC2)c(=O)c2ccccc21", "note": "[Compound 58, 3-{[4-(2-{4-[(4-benzyl-1-piperidinyl)methyl]phenoxy}ethyl)-1-piperazinyl]carbonyl}-1-methyl-4(1H)-quinolinone]", "values": [{"measurement": "Cytotoxicity against HEK cells", "setting": "HEK293 cells; 20 µM", "result": 0.602}]}, {"compound": "CN(Cc1ccc(OCCN2CCN(C(=O)C3Cc4ccccc4O3)CC2)cc1)Cc1ccc2ncccc2c1", "note": "(stereo not shown) [Compound 60, (4-{2-[4-(2,3-dihydro-1-benzofuran-2-ylcarbonyl)-1-piperazinyl]ethoxy}benzyl)methyl(6-quinolinylmethyl)amine]", "values": [{"measurement": "Cytotoxicity against HEK cells", "setting": "HEK293 cells; 20 µM", "result": 0.572}]}, {"compound": "O=C(Nc1cccc(N2CCC(NCCC(c3ccc(F)cc3)c3ccco3)CC2)c1)c1ccncc1", "note": "(stereo not shown) [Compound 61, N-[3-(4-{[3-(4-fluorophenyl)-3-(2-furyl)propyl]amino}-1-piperidinyl)phenyl]isonicotinamide]", "values": [{"measurement": "Cytotoxicity against HEK cells", "setting": "HEK293 cells; 20 µM", "result": 0.173}]}, {"compound": "COC(=O)c1c(NC(=O)C2CCCO2)c2cc(NCc3cccc(OCCO)c3)cnc2n1CCc1ccccc1", "note": "(stereo not shown) [Compound 69, methyl 5-{[3-(2-hydroxyethoxy)benzyl]amino}-1-(2-phenylethyl)-3-[(tetrahydro-2-furanylcarbonyl)amino]-1H-pyrrolo[2,3-b]pyridine-2-carboxylate]", "values": [{"measurement": "effect on growth and proliferation of HEK293 cells", "setting": "HEK293 cells", "result": "decreased the cell numbers"}, {"measurement": "morphological changes in HEK293 cells", "setting": "HEK293 cells; 20 µM", "result": "slightly triggered cellular shrinking"}, {"measurement": "Cytotoxicity against HEK cells", "setting": "HEK293 cells; 20 µM", "result": 0.529}]}, {"compound": "O=C(C1CCCN(c2cccc3c2C(=O)N(Cc2ccsc2)C3=O)C1)N1CCC(O)(c2cccc(C(F)(F)F)c2)CC1", "note": "(stereo not shown) [Compound 73, 4-[3-({4-hydroxy-4-[3-(trifluoromethyl)phenyl]-1-piperidinyl}carbonyl)-1-piperidinyl]-2-(3-thienylmethyl)-1H-isoindole-1,3(2H)-dione]", "values": [{"measurement": "Cytotoxicity against HEK cells", "setting": "HEK293 cells; 20 µM", "result": 0.602}, {"measurement": "cytotoxicity in Vero cells", "setting": "Vero cells", "result": "no cytotoxicity"}, {"measurement": "growth of Vero cells", "setting": "Vero cells", "result": "reduced the growth"}]}, {"compound": "O=C(NCCS(=O)(=O)N1CCc2ccccc2C1)C1CC(=O)N(c2ccc(Cl)cc2)C1", "note": "(stereo not shown) [Compound 74, 1-(4-chlorophenyl)-N-(2-((3,4-dihydroisoquinolin-2(1H)-yl)sulfonyl)ethyl)-5-oxopyrrolidine-3-carboxamide]", "values": [{"measurement": "Cytotoxicity against HEK cells", "setting": "HEK293 cells; 20 µM", "result": 0.568}, {"measurement": "cytotoxicity in Vero cells", "setting": "Vero cells", "result": "no cytotoxicity"}, {"measurement": "growth of Vero cells", "setting": "Vero cells", "result": "reduced the growth"}]}, {"compound": "Cc1ccc(N2CC(C(=O)NCCS(=O)(=O)N3CCc4ccccc4C3)CC2=O)cc1", "note": "(stereo not shown) [Compound 75, N-(2-((3,4-dihydroisoquinolin-2(1H)-yl)sulfonyl)ethyl)-5-oxo-1-(p-tolyl)pyrrolidine-3-carboxamide]", "values": [{"measurement": "Cytotoxicity against HEK cells", "setting": "HEK293 cells; 20 µM", "result": 0.604}]}, {"compound": "Cc1ccc(N2CC(C(=O)NCCS(=O)(=O)N3CCc4ccccc4C3)CC2=O)cc1C", "note": "(stereo not shown) [Compound 76, N-(2-((3,4-dihydroisoquinolin-2(1H)-yl)sulfonyl)ethyl)-1-(3,4-dimethylphenyl)-5-oxopyrrolidine-3-carboxamide]", "values": [{"measurement": "Cytotoxicity against HEK cells", "setting": "HEK293 cells; 20 µM", "result": 0.520}]}, {"compound": "COc1cccc(N2CC(C(=O)NCCS(=O)(=O)N3CCc4ccccc4C3)CC2=O)c1", "note": "(stereo not shown) [Compound 77, N-(2-((3,4-dihydroisoquinolin-2(1H)-yl)sulfonyl)ethyl)-1-(3-methoxyphenyl)-5-oxopyrrolidine-3-carboxamide]", "values": [{"measurement": "Cytotoxicity against HEK cells", "setting": "HEK293 cells; 20 µM", "result": 0.578}]}, {"compound": "O=C(NCCS(=O)(=O)N1CCN(c2ccc(F)cc2)CC1)C1CC(=O)N(c2ccccc2)C1", "note": "(stereo not shown) [Compound 78, N-(2-((4-(4-fluorophenyl)piperazin-1-yl)sulfonyl)ethyl)-5-oxo-1-phenylpyrrolidine-3-carboxamide]", "values": [{"measurement": "Cytotoxicity against HEK cells", "setting": "HEK293 cells; 20 µM", "result": 0.574}]}]}
